According to patent US6737383B1, “Herbicidal oxadiazolidines” (priority 1999, dated 2004):

How the values were obtained:
[1] = system: wild oat; test: Test B pre/postemergence wild oat; type: in vivo, Avena fatua; conditions: for Plant response rating, Wild oats: Rate 250 g/ha
Summary of the method: (§1)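 Test chemicals in a non-phytotoxic solvent mixture with surfactant were sprayed preemergence onto planted seeds and postemergence onto plants 2 to 18 cm tall (1- to 4-leaf stage). After twelve to sixteen days in a greenhouse, injury was visually rated against untreated controls from 0 (no effect) to 10 (complete control).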

[2] = system: bedstraw; test: Test B pre/postemergence bedstraw; type: in vivo, Galium aparine
Summary of the method: as §1

[3] = system: soybean; test: Test B pre/postemergence soybean; type: in vivo, Glycine max
Summary of the method: as §1

[4] = system: bamyardgrass; test: Test B flood test barnyardgrass; type: in vivo, Echinochloa crus-galli
Summary of the method: (§2)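 Each value is a visual injury score relative to controls, with 10 meaning complete control and 0 no effect. Evaluation took place twelve to sixteen days after the 2-leaf-stage plants were treated and kept in the greenhouse.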

[5] = system: wheat; test: Test B pre/postemergence wheat; type: in vivo, Triticum aestivum; conditions: for Plant response rating, Wheat: Rate 250 g/ha
Summary of the method: as §1

[6] = system: purple nutsedge; test: Test B pre/postemergence purple nutsedge; type: in vivo, Cyperus rotundus
Summary of the method: as §1

[7] = system: velvetleaf; test: Test B pre/postemergence velvetleaf; type: in vivo, Abutilon theophrasti; conditions: for Plant response rating, Velvetleaf: Rate 250 g/ha
Summary of the method: as §1

[8] = system: rape; test: Test B pre/postemergence rape; type: in vivo, Brassica napus
Summary of the method: as §1

[9] = system: cocklebur; test: Test B pre/postemergence cocklebur; type: in vivo, Xanthium strumarium
Summary of the method: as §1

[10] = system: corn; test: Test B pre/postemergence corn; type: in vivo, Zea mays
Summary of the method: as §1

[11] = system: surinam grass; test: Test B pre/postemergence surinam grass; type: in vivo, Brachiaria decumbens
Summary of the method: as §1

[12] = system: pigweed; test: Test B pre/postemergence pigweed; type: in vivo, Amaranthus retroflexus
Summary of the method: as §1

[13] = system: blackgrass; test: Test B pre/postemergence blackgrass; type: in vivo, Alopecurus myosuroides
Summary of the method: as §1

[14] = system: sugar beet; test: Test B pre/postemergence sugar beet; type: in vivo, Beta vulgaris; conditions: for Plant response rating, Sugarbeets: Rate 250 g/ha
Summary of the method: as §1

[15] = system: crabgrass; test: Test B pre/postemergence crabgrass; type: in vivo, Digitaria sanguinalis
Summary of the method: as §1

[16] = system: smallflower flatsedge; test: Test B flood test smallflower flatsedge; type: in vivo, Cyperus difformis
Summary of the method: as §2

[17] = Postemergence, Rate 62 g/ha, scale 0 to 10, 0 is no effect, 10 is complete control
[18] = Postemergence, Rate 125 g/ha, scale of 0 to 10 where 0 is no effect and 10 is complete control
[19] = Preemergence, Rate 62 g/ha, scale 0 to 10 (0 no effect, 10 complete control)
[20] = Preemergence, Rate 125 g/ha, 0 is no effect, 10 is complete control
[21] = Preemergence, scale of 0 to 10 where 0 is no effect and 10 is complete control
[22] = Preemergence, Rate 500 g/ha, scale 0 (no effect) to 10 (complete control)
[23] = Postemergence, scale 0 to 10, 0 is no effect, 10 is complete control
[24] = Rate 500 g/ha, Postemergence, scale 0 to 10, 0 no effect, 10 complete control
[25] = Preemergence, Rate 125 g/ha, scale 0 to 10 (0 no effect, 10 complete control)
[26] = Preemergence, Rate 250 g/ha, scale of 0 to 10 where 0 is no effect and 10 is complete control
[27] = Rate 250 g/ha, Postemergence, scale 0 to 10, 0 is no effect, 10 is complete control
[28] = Rate 250 g/ha, headed Pre-emergence (flood test species), scale 0 to 10 (0 no effect, 10 complete control)
[29] = Rate 500 g/ha, headed Pre-emergence (flood test species), scale 0 to 10 (0 no effect, 10 complete control)
[30] = Rate 500 g/ha, listed under Postemergence (flood test species), scale 0 to 10, 0 no effect, 10 complete control
[31] = Postemergence, Rate 250 g/ha, scale 0 to 10, 0 no effect, 10 complete control

C=CCn1c(=O)on(C(=O)N(c2ccccc2)C(C)C)c1=O [Compound 93]
Wild oats plant response rating [1, 17]: 0
Wild oats plant response rating [1, 18]: 0
Wild oats plant response rating [1, 19]: 8
Wild oats plant response rating (0 to 10 scale) [1, 20]: 8
Plant response rating, Wild oats [1, 21]: 10
Wild oats plant response rating [1, 22]: 10
Plant response rating, Wild oats [1, 23]: 2
Wild oats plant response rating [1, 24]: 5
Bedstraw plant response rating [2, 19]: 0
Plant response rating, Bedstraw [2, 25]: 0
Plant response rating, Bedstraw [2, 26]: 0
Bedstraw plant response rating [2, 22]: 3
Bedstraw plant response rating [2, 24]: 7
Soybean plant response rating [3, 17]: 4
Soybean plant response rating [3, 18]: 5
Soybean plant response rating [3, 19]: 0
Plant response rating, Soybean [3, 25]: 2
Plant response rating, Soybean [3, 26]: 7
Soybean plant response rating [3, 22]: 9
Plant response rating, Soybean [3, 27]: 5
Soybean plant response rating [3, 24]: 7
Barnyardgrass plant response rating [4, 17]: 0
Barnyardgrass plant response rating ([4]; Rate 125 g/ha, Postemergence section (flood test species), scale 0 to 10, 0 no effect, 10 complete control): 0
Barnyardgrass plant response rating [4, 28]: 0
Plant response rating, Barnyardgrass [4, 29]: 0
Barnyardgrass plant response rating [4, 30]: 0
Barnyardgrass plant response rating ([4]; Rate 1000 g/ha, Pre-emergence (as headed), scale 0 to 10): 0
Barnyardgrass plant response rating ([4]; Rate 2000 g/ha, Pre-emergence (as headed), scale 0 to 10, 0 no effect, 10 complete control): 0
Barnyardgrass plant response rating ([4]; flood test, listed under Postemergence, Rate 250 g/ha, scale 0 to 10, 0 no effect, 10 complete control): 0
Wheat plant response rating [5, 17]: 0
Wheat plant response rating [5, 18]: 3
Wheat plant response rating [5, 19]: 3
Wheat plant response rating (0 to 10 scale) [5, 20]: 3
Plant response rating, Wheat [5, 21]: 6
Wheat plant response rating [5, 22]: 8
Plant response rating, Wheat [5, 23]: 4
Wheat plant response rating [5, 24]: 5
Nutsedge plant response rating [6, 17]: 0
Nutsedge plant response rating [6, 18]: 0
Nutsedge plant response rating [6, 31]: 0
Nutsedge plant response rating [6, 19]: 0
Plant response rating, Nutsedge [6, 25]: 0
Plant response rating, Nutsedge [6, 26]: 0
Nutsedge plant response rating [6, 24]: 3
Velvetleaf plant response rating [7, 17]: 0
Velvetleaf plant response rating [7, 18]: 0
Velvetleaf plant response rating [7, 19]: 5
Velvetleaf plant response rating (0 to 10 scale) [7, 20]: 6
Plant response rating, Velvetleaf [7, 21]: 6
Velvetleaf plant response rating [7, 22]: 10
Plant response rating, Velvetleaf [7, 23]: 0
Velvetleaf plant response rating [7, 24]: 6
Rape plant response rating [8, 17]: 2
Rape plant response rating [8, 18]: 3
Rape plant response rating [8, 31]: 4
Rape plant response rating [8, 19]: 3
Plant response rating, Rape [8, 25]: 7
Plant response rating, Rape [8, 26]: 8
Rape plant response rating [8, 22]: 10
Rape plant response rating [8, 24]: 5
Cocklebur plant response rating [9, 17]: 0
Cocklebur plant response rating [9, 18]: 1
Cocklebur plant response rating [9, 31]: 2
Cocklebur plant response rating [9, 19]: 2
Plant response rating, Cocklebur [9, 25]: 2
Cocklebur plant response rating [9, 24]: 4
Corn plant response rating [10, 17]: 3
Corn plant response rating [10, 18]: 4
Corn plant response rating [10, 31]: 5
Corn plant response rating [10, 19]: 3
Plant response rating, Corn [10, 25]: 7
Plant response rating, Corn [10, 26]: 8
Corn plant response rating [10, 22]: 9
Corn plant response rating [10, 24]: 5
B. signalgrass plant response rating [11, 17]: 3
B. signalgrass plant response rating [11, 31]: 8
Plant response rating, B. signalgrass [11, 25]: 7
B. signalgrass plant response rating [11, 22]: 8
B. signalgrass plant response rating ([11]; Rate 125 g/ha, Postemergence, scale 0 to 10, 0 no effect, 10 complete control): 5
B. signalgrass plant response rating ([11]; Rate 500 g/ha, Postemergence, scale of 0 to 10 where 0 is no effect and 10 is complete control): 9
Redroot pigweed plant response rating [12, 17]: 2
Redroot pigweed plant response rating [12, 18]: 4
Redroot pigweed plant response rating [12, 19]: 9
Plant response rating, Redroot pigweed [12, 25]: 8
Plant response rating, Redroot pigweed [12, 26]: 10
Redroot pigweed plant response rating [12, 22]: 10
Plant response rating, Redroot pigweed [12, 27]: 7
Redroot pigweed plant response rating [12, 24]: 7
Blackgrass plant response rating [13, 17]: 7
Blackgrass plant response rating [13, 18]: 8
Blackgrass plant response rating [13, 31]: 8
Blackgrass plant response rating [13, 19]: 9
Plant response rating, Blackgrass [13, 25]: 10
Plant response rating, Blackgrass [13, 26]: 10
Blackgrass plant response rating [13, 22]: 10
Blackgrass plant response rating [13, 24]: 8
Sugarbeets plant response rating [14, 17]: 2
Sugarbeets plant response rating [14, 18]: 3
Sugarbeets plant response rating [14, 19]: 6
Sugarbeets plant response rating (0 to 10 scale) [14, 20]: 7
Plant response rating, Sugarbeets [14, 21]: 8
Sugarbeets plant response rating [14, 22]: 9
Plant response rating, Sugarbeets [14, 23]: 3
Sugarbeets plant response rating [14, 24]: 5
Crabgrass plant response rating [15, 17]: 7
Crabgrass plant response rating [15, 18]: 8
Crabgrass plant response rating [15, 31]: 9
Crabgrass plant response rating [15, 19]: 7
Plant response rating, Crabgrass [15, 25]: 9
Plant response rating, Crabgrass [15, 26]: 9
Crabgrass plant response rating [15, 22]: 10
Crabgrass plant response rating [15, 24]: 9
S. Flatsedge plant response rating ([16]; Postemergence (flood test species), Rate 125 g/ha, scale of 0 to 10 where 0 is no effect and 10 is complete control): 0
S. Flatsedge plant response rating [16, 17]: 0
S. Flatsedge plant response rating ([16]; Pre-emergence, Rate 1000 g/ha, scale 0 to 10 (0 no effect, 10 complete control)): 0
Plant response rating, S. Flatsedge ([16]; Rate 250 g/ha, Postemergence (flood test), scale 0 to 10, 0 is no effect, 10 is complete control): 0
S. Flatsedge plant response rating [16, 28]: 0
Plant response rating, S. Flatsedge [16, 29]: 0
S. Flatsedge plant response rating [16, 30]: 6
S. Flatsedge plant response rating ([16]; Rate 2000 g/ha, Pre-emergence (as headed), scale 0 to 10): 0
